Test system: CN0375-F725-PDC KRAS spheroid viability
Assay: Anticancer human tumor CN0375-F725-PDC patient-derived colon carcinoma cell line growth inhibition [KRAS2]
Conditions: spheroids with HUVEC and MSC; for viability, T/C: stronger effect = lower value
Summary of the method: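 Combination screen of spheroid viability in tumor-cell co-cultures with endothelial (HUVEC) and mesenchymal stem cell stroma. Each agent was tested in half-log dilutions, topping at clinical Cmax or at 10 microM without a known Cmax.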

[1] = curve of first compound, second compound 0.1 µM
[2] = curve of first compound, second compound 0.316 µM
[3] = curve of first compound, second compound 1 µM
[4] = curve of first compound, second compound 3.16 µM
[5] = curve of first compound, second compound 10 µM
[6] = second compound 0.1 µM, first compound 0.01 µM
[7] = second compound 0.1 µM, first compound 0.0316 µM
[8] = second compound 0.1 µM, first compound 0.1 µM
[9] = second compound 0.1 µM, first compound 0.316 µM
[10] = second compound 0.1 µM, first compound 1 µM
[11] = second compound 0.316 µM, first compound 0.01 µM
[12] = second compound 0.316 µM, first compound 0.0316 µM
[13] = second compound 0.316 µM, first compound 0.1 µM
[14] = second compound 0.316 µM, first compound 0.316 µM
[15] = second compound 0.316 µM, first compound 1 µM
[16] = second compound 1 µM, first compound 0.01 µM
[17] = second compound 1 µM, first compound 0.0316 µM
[18] = second compound 1 µM, first compound 0.1 µM
[19] = second compound 1 µM, first compound 0.316 µM
[20] = second compound 1 µM, first compound 1 µM
[21] = second compound 3.16 µM, first compound 0.01 µM
[22] = second compound 3.16 µM, first compound 0.0316 µM
[23] = second compound 3.16 µM, first compound 0.1 µM
[24] = second compound 3.16 µM, first compound 0.316 µM
[25] = second compound 3.16 µM, first compound 1 µM
[26] = second compound 10 µM, first compound 0.01 µM
[27] = second compound 10 µM, first compound 0.0316 µM
[28] = second compound 10 µM, first compound 0.1 µM
[29] = second compound 10 µM, first compound 0.316 µM
[30] = second compound 10 µM, first compound 1 µM
[31] = second compound 0.1 µM, first compound 3.16 µM
[32] = second compound 0.1 µM, first compound 10 µM
[33] = second compound 0.316 µM, first compound 3.16 µM
[34] = second compound 0.316 µM, first compound 10 µM
[35] = second compound 1 µM, first compound 3.16 µM
[36] = second compound 1 µM, first compound 10 µM
[37] = second compound 3.16 µM, first compound 3.16 µM
[38] = second compound 3.16 µM, first compound 10 µM
[39] = second compound 10 µM, first compound 3.16 µM
[40] = second compound 10 µM, first compound 10 µM
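Note: spheroids exposed to agents for 7 days.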

SMILES	IC50 [1]	IC50 [2]	IC50 [3]	IC50 [4]	IC50 [5]	viability, T/C [7]	viability, T/C [8]	viability, T/C [9]	viability, T/C [10]	viability, T/C [12]	viability, T/C [13]	viability, T/C [14]	viability, T/C [15]	viability, T/C [17]	viability, T/C [18]	viability, T/C [19]	viability, T/C [20]	viability, T/C [22]	viability, T/C [23]	viability, T/C [24]	further results
CCN1CCN(Cc2ccc(Nc3ncc(F)c(-c4cc(F)c5nc(C)n(C(C)C)c5c4)n3)nc2)CC1 + CC1OCC2(CCN(c3cnc(Sc4ccnc(N)c4Cl)c(N)n3)CC2)C1N	> 1 µM	> 1 µM	> 1 µM	> 1 µM	> 1 µM	81.4%	88.2%	95.7%	92.8%	67.3%	74.6%	89.3%	84.9%	72.6%	75.2%	82.9%	81.7%	68.1%	66.6%	75.1%	viability, T/C (second compound 0.1 µM, first compound 0.00316 µM): 92.9%; viability, T/C [6]: 83.3%; viability, T/C (second compound 0.316 µM, first compound 0.00316 µM): 84.9%; viability, T/C [11]: 82.2%; viability, T/C (second compound 1 µM, first compound 0.00316 µM): 82.3%; viability, T/C [16]: 80%; viability, T/C (second compound 3.16 µM, first compound 0.00316 µM): 72.2%; viability, T/C [21]: 74.8%; viability, T/C [25]: 68.8%; viability, T/C (second compound 10 µM, first compound 0.00316 µM): 65.8%; viability, T/C [26]: 69.3%; viability, T/C [27]: 60.4%; viability, T/C [28]: 61.1%; viability, T/C [29]: 70.4%; viability, T/C [30]: 53.3%
COc1cc(Nc2ncc3c(n2)-c2ccc(Cl)cc2C(c2c(F)cccc2OC)=NC3)ccc1C(=O)O + COc1cc2nc(C)nc(NC(C)c3cc(N)cc(C(F)(F)F)c3)c2cc1OC1CCOC1	> 10 µM	> 10 µM	> 10 µM	> 10 µM	< 0.0316 µM	95.9%	93.2%	88.8%	88.2%	97%	97.6%	90.5%	87.8%	91.7%	95.6%	89.8%	85.1%	84.8%	88.3%	72.7%	viability, T/C [31]: 87.3%; viability, T/C [32]: 71.8%; viability, T/C [33]: 83.1%; viability, T/C [34]: 71.8%; viability, T/C [35]: 83.9%; viability, T/C [36]: 69.4%; viability, T/C [25]: 79%; viability, T/C [37]: 75.9%; viability, T/C [38]: 64.6%; viability, T/C [27]: 27.6%; viability, T/C [28]: 15.6%; viability, T/C [29]: 13.9%; viability, T/C [30]: 15.7%; viability, T/C [39]: 15.5%; viability, T/C [40]: 7.94%
CCNC(=O)CC1N=C(c2ccc(Cl)cc2)c2cc(OC)ccc2-n2c(C)nnc21 (stereo not given)	–	–	–	–	–	–	–	–	–	–	–	–	–	–	–	–	–	–	–	–	viability, T/C (compound 0.0316 µM): 100% [middle of 5 runs]; viability, T/C (compound 0.1 µM): 97.1% [middle of 5 runs]; viability, T/C (compound 0.316 µM): 90.4% [middle of 5 runs]; viability, T/C (compound 1 µM): 84.2% [middle of 5 runs]; viability, T/C (compound 3.16 µM): 74.3% [middle of 5 runs]; viability, T/C (compound 10 µM): 58.6% [middle of 5 runs]; IC50 (curve of compound): > 10 µM
COc1cc2nccc(Oc3ccc(NC(=O)C4(C(=O)Nc5ccc(F)cc5)CC4)cc3)c2cc1OC + C=CC(=O)N1CCN(c2nc(=O)n(-c3c(C)ccnc3C(C)C)c3nc(-c4c(O)cccc4F)c(F)cc23)C(C)C1	> 10 µM	> 10 µM	> 10 µM	> 10 µM	1.97 µM	109%	106%	96.3%	89%	113%	102%	92%	85.4%	114%	117%	94.7%	91.1%	109%	107%	96.9%	viability, T/C [31]: 63.5%; viability, T/C [32]: 74.1%; viability, T/C [33]: 63.8%; viability, T/C [34]: 62.1%; viability, T/C [35]: 58.2%; viability, T/C [36]: 71.1%; viability, T/C [25]: 89.8%; viability, T/C [37]: 51.5%; viability, T/C [38]: 62.1%; viability, T/C [27]: 99.4%; viability, T/C [28]: 96.4%; viability, T/C [29]: 85.7%; viability, T/C [30]: 69.3%; viability, T/C [39]: 31.9%; viability, T/C [40]: 41.1%
CC1COCCN1c1cc(-c2ccnn2C)c2ccnc(-c3ccn[nH]3)c2n1 (stereo not given) + COc1cc2nc(C)nc(NC(C)c3cc(N)cc(C(F)(F)F)c3)c2cc1OC1CCOC1	> 3.16 µM	> 3.16 µM	> 3.16 µM	2.72 µM	< 0.01 µM	95%	86.5%	78.3%	71.1%	91.4%	76%	74.8%	67.9%	96.1%	78%	71.8%	65.6%	88.2%	71.7%	65.3%	viability, T/C [6]: 101%; viability, T/C [31]: 54.1%; viability, T/C [11]: 98.7%; viability, T/C [33]: 50.8%; viability, T/C [16]: 101%; viability, T/C [35]: 49.5%; viability, T/C [21]: 87.5%; viability, T/C [25]: 58.1%; viability, T/C [37]: 48.1%; viability, T/C [26]: 15%; viability, T/C [27]: 19.3%; viability, T/C [28]: 17.1%; viability, T/C [29]: 13.9%; viability, T/C [30]: 18.1%; viability, T/C [39]: 9.84%
C=CC(=O)N1CCN(c2nc(=O)n(-c3c(C)ccnc3C(C)C)c3nc(-c4c(O)cccc4F)c(F)cc23)C(C)C1 (stereo not given)	–	–	–	–	–	–	–	–	–	–	–	–	–	–	–	–	–	–	–	–	viability, T/C (compound 0.1 µM): 103% [middle of 17 runs]; viability, T/C (compound 0.316 µM): 103% [middle of 17 runs]; viability, T/C (compound 1 µM): 103% [middle of 17 runs]; viability, T/C (compound 3.16 µM): 104% [middle of 17 runs]; viability, T/C (compound 10 µM): 100% [middle of 17 runs]; IC50 (compound alone, run of 08/19/2021): > 10 µM; IC50 (compound alone, run of 08/26/2021): > 10 µM; IC50 (compound alone, run of 09/02/2021): > 10 µM

Reference: PubChem BioAssay AID1963860 (Molecular Pharmacology Branch, DTP, NCI, 2024)
